Data from patent EP4810040A2, “INHIBITORS OF APOL1 AND METHODS OF USING SAME” (priority 2020, dated 2022).

Biological target: T1, APOL1 G1 (Homo sapiens, UniProt O14791, I384M/S342G)
T1 sequence (O14791 28-398 S342G/I384M): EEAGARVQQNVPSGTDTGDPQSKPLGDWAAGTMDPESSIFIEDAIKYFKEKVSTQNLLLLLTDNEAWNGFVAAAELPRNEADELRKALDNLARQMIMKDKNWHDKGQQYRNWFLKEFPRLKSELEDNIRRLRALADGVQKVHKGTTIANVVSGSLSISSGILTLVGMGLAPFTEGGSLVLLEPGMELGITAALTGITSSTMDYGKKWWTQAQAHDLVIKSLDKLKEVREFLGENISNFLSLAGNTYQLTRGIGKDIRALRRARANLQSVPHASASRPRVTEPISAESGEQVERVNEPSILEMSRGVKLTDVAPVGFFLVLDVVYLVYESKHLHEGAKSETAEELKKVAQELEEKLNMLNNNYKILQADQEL
Experiment: MultiTox-Fluor Multiplex Cytotoxicity Assay, tet-inducible APOL1 G1 T-REx-HEK293 cells
Type: cell-based
Design: expressed in transfected cells; host or cells: T-REx HEK293, clone G1 DC3.25 (pAAVS1-Puro-APOL1 G1)
Settings: for IC90: HEK293, Multi-Tox Assay, APOL1 variant (G0/G1/G2) of the HEK293 cells not given, read-out: Multi-Tox Assay IC90; for Multi-Tox Assay Max Activity (%): APOL1 variant not given
Description: The MultiTox-Fluor Multiplex Cytotoxicity Assay is a single-reagent-addition, homogeneous, fluorescence assay that measures the number of live and dead cells simultaneously in culture wells. The assay measures cell viability and cytotoxicity by detecting two distinct protease activities. The live-cell protease activity is restricted to intact viable cells and is measured using a fluorogenic, cell-permeant peptide glycyl-phenylalanylamino fluorocoumarin (GF-AFC) substrate. The substrate enters intact cells, where it is cleaved to generate a fluorescent signal proportional to the number of living cells. […] A second, cell-impermeant, fluorogenic peptide substrate (bis-AAF-R110 Substrate) is used to measure dead-cell protease that has been released from cells that have lost membrane integrity. A ratio of dead to live cells is used to normalize data.
Briefly, the tet-inducible transgenic APOL1 T-REx-HEK293 cell lines were incubated with 50 ng/mL tet to induce APOL1 in the presence of 3-(2-(4-fluorophenyl)-1H-indol-3-yl)-N-((3S,4R)-4-hydroxy-2-oxopyrrolidin-3-yl)propenamide at […], 0.0045, 0.0015, 0.0005 µM in duplicate for 24 hours in a humidified 37°C incubator. The MultiTox reagent was added to each well and placed back in the incubator for an additional 30 minutes. The plate was read on the EnVision plate reader. A ratio of dead to live cells was used to normalize, and data was imported, analyzed and fit using Genedata Screener (Basel, Switzerland) software. Data was normalized using percent of control, no tet (100% viability), and 50 ng/mL tet treated (0% viability),and fit using Smart Fit. The reagents, methods, and complete protocol for the MultiTox assay are described below. Table 42. Reagents Used in the Multi-Tox Assay
Human embryonic kidney (HEK293) cell lines containing a tet-inducible expression system (T-REx™; Invitrogen, Carlsbad, CA) and Adeno-associated virus site 1 pAA VS1-Puro-APOL1 G0 or pAAVS1-Puro-APOL1 G1 or pAAVS1-Puro-APOL1 G2 Clones G0 DC2.13, G1 DC3.25, and G2 DC4.44 were grown in a T-225 flask at ~90% confluency in cell growth media (DMEM, 10% Tet-free FBS, 2 mM L-glutamine, 100 Units/mL penicillin-streptomycin, 5 µg/mL blasticidin S HCl, 1 µg/mL puromycin dihydrochloride). Cells were washed with DPBS and then trypsinized to dissociate from the flask. Media was used to quench the trypsin, cells were then pelleted at 200g and resuspended in fresh cell assay media (DMEM, 2% Tet-free FBS, 2 mM L-glutamine, 100 Units/mL penicillin-streptomycin). Cells were counted and diluted to 1.17 x 10^6 cells/mL. 20 µL of cells (23,400/well) were dispensed to every well of a 384-well Poly-D-Lysine coated plate using the Multidrop dispenser. The plates were then incubated at room temperature for one hour.
Tetracycline is needed to induce APOL1 expression. 1 mg/mL tet stock in water was diluted to 250 ng/mL (5X) in cell assay media. 60 µL of cell assay media (no tet control) was dispensed in columns 1 and 24, and 60 µL of 5X tet was dispensed in 384-PP-round bottom plate in columns 2 to 23 with the Multidrop dispenser.
Assay ready plates from the Global Compound Archive were ordered using template 384_APOL1Cell_DR10n2_50uM_v3. Compounds were dispensed at 200 nL in DMSO. The final top concentration was 10 µM with a 10 point 3-fold dilution in duplicate in the MultiTox assay.
20 µL were transferred from the 5X tet plate to the ARP and mixed, then 5 µL of 5X tet and the compounds were transferred to the cell plate and mixed using the Bravo. The cell plate was placed in the humidified 37°C 5% CO2 incubator for 24 hours.
The MultiTox-Fluor Multiplex Cytotoxicity Assay was performed in accordance with the manufacturer's protocol. […]

Row | SMILES | IC90 [µM] | Multi-Tox Assay Max Activity (%)
1 | C[C@H]1C[C@@]2(C[C@@H](c3cnn4ccccc34)N1)OCCc1cc(Cl)sc12 (racemic) [Compound 117] | 0.05 to 0.5 | 
2 | C[C@H]1C[C@@]2(C[C@@H](c3ccn(C)n3)N1)OCCc1cc(Cl)sc12 (racemic) [Compound 118] | 0.05 to 0.5 | 99.3
3 | C[C@H]1C[C@@]2(C[C@@H](c3cc(C4CC4)n[nH]3)N1)OCCc1cc(Cl)sc12 (racemic) [Compound 120] | 0.05 to 0.5 | 
4 | C[C@H]1C[C@@]2(C[C@@H](c3ccc[nH]c3=O)N1)OCCc1cc(Cl)sc12 (racemic) [Compound 121] | 0.05 to 0.5 | 
5 | C[C@H]1C[C@@]2(C[C@@H](c3ccc(C(F)(F)F)nc3)N1)OCCc1cc(Cl)sc12 (racemic) [Compound 123] | 0.05 to 0.5 | 100.0
6 | C[C@H]1C[C@@]2(C[C@@H](c3cn(C)c(=O)n(C)c3=O)N1)OCCc1cc(Cl)sc12 (racemic) [Compound 124] | 0.05 to 0.5 | 99.3
7 | Cc1cc(O)ncc1[C@@H]1C[C@]2(C[C@H](C)N1)OCCc1cc(Cl)sc12 (racemic) [Compound 125] | 0.05 to 0.5 | 99.7
8 | Cc1cccc([C@@H]2C[C@]3(C[C@H](C)N2)OCCc2cc(Cl)sc23)n1 (racemic) [Compound 126] | 0.05 to 0.5 | 99.4
9 | C[C@H]1C[C@@]2(C[C@@H](c3ccnc(N(C)C)n3)N1)OCCc1cc(Cl)sc12 (racemic) [Compound 127] | 0.05 to 0.5 | 99.3
10 | CCc1nc([C@@H]2C[C@]3(C[C@H](C)N2)OCCc2cc(Cl)sc23)c[nH]1 (racemic) [Compound 128] | 0.05 to 0.5 | 99.3
11 | C[C@H]1C[C@@]2(C[C@@H](c3cnc(N4CCN(C)CC4)nc3)N1)OCCc1cc(Cl)sc12 (racemic) [Compound 129] | 0.05 to 0.5 | 100.0
12 | C[C@H]1C[C@@]2(C[C@@H](c3c[nH]c(C4CC4)n3)N1)OCCc1cc(Cl)sc12 (racemic) [Compound 130] | 0.05 to 0.5 | 
13 | C[C@H]1C[C@@]2(C[C@@H](c3cc4n(n3)CCCO4)N1)OCCc1cc(Cl)sc12 (racemic) [Compound 131] | 0.05 to 0.5 | 99.3
14 | Cc1nocc1[C@@H]1C[C@]2(C[C@H](C)N1)OCCc1cc(Cl)sc12 (racemic) [Compound 132] | 0.05 to 0.5 | 99.3
15 | C[C@H]1C[C@@]2(C[C@@H](c3cn(CC(N)=O)nn3)N1)OCCc1cc(Cl)sc12 (racemic) [Compound 133] | 0.05 to 0.5 | 99.7
16 | Cc1cnc([C@@H]2C[C@]3(C[C@H](C)N2)OCCc2cc(Cl)sc23)o1 (racemic) [Compound 134] | 0.05 to 0.5 | 99.2
17 | Cc1c([C@@H]2C[C@]3(C[C@H](C)N2)OCCc2cc(Cl)sc23)cnn1C (racemic) [Compound 136] | 0.05 to 0.5 | 98.7
18 | COc1cc(O)cc([C@@H]2C[C@]3(C[C@H](C)N2)OCCc2cc(Cl)sc23)c1 (racemic) [Compound 137] | 0.05 to 0.5 | 98.7
19 | Cc1cc([C@@H]2C[C@]3(C[C@H](C)N2)OCCc2cc(Cl)sc23)nc(N(C)C)n1 (racemic) [Compound 138] | 0.05 to 0.5 | 98.0

Row | SMILES | IC90 [µM] | Multi-Tox Assay Max Activity (%)
20 | Cc1ccnc([C@@H]2C[C@]3(C[C@H](C)N2)OCCc2cc(Cl)sc23)c1 (racemic) [Compound 139] | 0.05 to 0.5 | 98.0
21 | C[C@H]1C[C@@]2(C[C@@H](c3cnc(C4CCOCC4)o3)N1)OCCc1cc(Cl)sc12 (racemic) [Compound 140] | 0.05 to 0.5 | 99.7
22 | C[C@H]1C[C@@]2(C[C@@H](c3cccc4[nH]c(=O)oc34)N1)OCCc1cc(Cl)sc12 (racemic) [Compound 141] | 0.05 to 0.5 | 96.3
23 | Cc1nn(C)cc1[C@@H]1C[C@]2(C[C@H](C)N1)OCCc1cc(Cl)sc12 (racemic) [Compound 142] | 0.05 to 0.5 | 
24 | Cc1nc([C@@H]2C[C@]3(C[C@H](C)N2)OCCc2cc(Cl)sc23)oc1C (racemic) [Compound 144] | > 0.5 | 98.0
25 | COc1ccnc([C@@H]2C[C@]3(C[C@H](C)N2)OCCc2cc(Cl)sc23)n1 (racemic) [Compound 145] | > 0.5 | 97.7
26 | C[C@H]1C[C@@]2(C[C@@H](c3cccc(S(C)(=O)=O)c3)N1)OCCc1cc(Cl)sc12 (racemic) [Compound 146] | 0.05 to 0.5 | 97.0
27 | C[C@H]1C[C@@]2(C[C@@H](c3cccc(S(N)(=O)=O)c3)N1)OCCc1cc(Cl)sc12 (racemic) [Compound 147] | > 0.5 | 92.3
28 | C[C@H]1C[C@@]2(C[C@@H](c3cccc(-c4cn[nH]c4)c3)N1)OCCc1cc(Cl)sc12 (racemic) [Compound 148] | 0.05 to 0.5 | 97.0
29 | C[C@H]1C[C@@]2(C[C@@H](c3cnc4n3CCOC4)N1)OCCc1cc(Cl)sc12 (racemic) [Compound 149] | > 0.5 | 95.7
30 | Cc1nc([C@@H]2C[C@]3(C[C@H](C)N2)OCCc2cc(Cl)sc23)[nH]c1C (racemic) [Compound 150] | > 0.5 | 96.3
31 | C[C@H]1C[C@@]2(C[C@@H](c3cccc(=O)[nH]3)N1)OCCc1cc(Cl)sc12 (racemic) [Compound 151] | > 0.5 | 96.2
32 | C[C@H]1C[C@@]2(C[C@@H](c3ccnn3C)N1)OCCc1cc(Cl)sc12 (racemic) [Compound 152] | > 0.5 | 98.0
33 | CCc1c[nH]c([C@@H]2C[C@]3(C[C@H](C)N2)OCCc2cc(Cl)sc23)n1 (racemic) [Compound 153] | > 0.5 | 96.0
34 | COc1nn(C)cc1[C@@H]1C[C@]2(C[C@H](C)N1)OCCc1cc(Cl)sc12 (racemic) [Compound 154] | > 0.5 | 94.0
35 | Cc1coc([C@@H]2C[C@]3(C[C@H](C)N2)OCCc2cc(Cl)sc23)n1 (racemic) [Compound 155] | > 0.5 | 95.2
36 | Cc1nc([C@@H]2C[C@]3(C[C@H](C)N2)OCCc2cc(Cl)sc23)c[nH]1 (racemic) [Compound 156] | > 0.5 | 93.0
37 | Cc1ncoc1[C@@H]1C[C@]2(C[C@H](C)N1)OCCc1cc(Cl)sc12 (racemic) [Compound 157] | > 0.5 | 96.3
